Test results taken from ChEMBL document CHEMBL1132827, “New multidrug resistance modulators from Atractylodis Lanceae Rhizoma” (2000).

Experiments:
[1] = tested on: KB 3-1; experiment: Cytotoxicity (3 ug/mL) was evaluated against KB-3-1 cell lines by observing the effect on growth of cells tested; assay type: functional, Homo sapiens
[2] = tested on: KB-C2; experiment: Inhibition of growth of KB-C2 cells at the dose of 1 ug/mL of compound in presence of 0.1 ug/mL of colchicine
[3] = tested on: KB 3-1; experiment: Cytotoxicity (10 ug/mL) was evaluated against KB-3-1 cell lines by observing the effect on growth of cells tested; assay type: functional, Homo sapiens
[4] = tested on: KB 3-1; experiment: Cytotoxicity (1 ug/mL) was evaluated against KB-3-1 cell lines by observing the effect on growth of cells tested; assay type: functional, Homo sapiens
[5] = tested on: KB-C2; experiment: Inhibition of growth of KB-C2 cells at the dose of 3 ug/mL of compound in presence of 0.1 ug/mL of colchicine
[6] = tested on: KB-C2; experiment: Inhibition of growth of KB-C2 cells at the dose of 10 ug/mL of compound in presence of 0.1 ug/mL of colchicine

Row | Structure (SMILES) | Inhibition [1] [%] | Inhibition [2] [%] | Inhibition [3] [%] | Inhibition [4] [%] | Inhibition [5] [%] | Inhibition [6] [%]
1 | CC(C)CC(=O)OC[C@H]1O[C@@](COC(=O)CC(C)C)(O[C@@H]2O[C@H](CO)[C@@H](O)[C@H](O)[C@H]2OC(=O)CC(C)C)[C@@H](OC(=O)CC(C)C)[C@@H]1O.CC[C@@H](C)C(=O)OC[C@@]1(O[C@@H]2O[C@H](CO)[C@@H](O)[C@H](O)[C@H]2OC(=O)CC(C)C)O[C@H](COC(=O)CC(C)C)[C@@H](O)[C@@H]1OC(=O)CC(C)C | 19 | 23 | 20 | 17 | 32 | 33
2 | CC(C)CC(=O)OC[C@H]1O[C@@](COC(=O)C(C)C)(O[C@@H]2O[C@H](CO)[C@@H](O)[C@H](O)[C@H]2OC(=O)CC(C)C)[C@@H](OC(=O)CC(C)C)[C@@H]1OC(=O)CC(C)C.CC(C)CC(=O)OC[C@H]1O[C@@](COC(=O)CC(C)C)(O[C@@H]2O[C@H](CO)[C@@H](O)[C@H](O)[C@H]2OC(=O)CC(C)C)[C@@H](OC(=O)CC(C)C)[C@@H]1OC(=O)C(C)C.CC[C@@H](C)C(=O)OC[C@@]1(O[C@@H]2O[C@H](CO)[C@@H](O)[C@H](O)[C@H]2OC(=O)CC(C)C)O[C@H](COC(=O)CC(C)C)[C@@H](OC(=O)C(C)C)[C@@H]1OC(=O)CC(C)C.CC[C@@H](C)C(=O)O[C@@H]1[C@@H](COC(=O)CC(C)C)O[C@@](COC(=O)C(C)C)(O[C@@H]2O[C@H](CO)[C@@H](O)[C@H](O)[C@H]2OC(=O)CC(C)C)[C@H]1OC(=O)CC(C)C | 13 | 38 | 94 | 6 | 83 | 96
3 | CC(C)CC(=O)OC[C@H]1O[C@@](COC(=O)CC(C)C)(O[C@H]2O[C@H](CO)[C@@H](O)[C@H](O)[C@H]2OC(=O)CC(C)C)[C@@H](OC(=O)CC(C)C)[C@@H]1OC(=O)CC(C)C.CC[C@@H](C)C(=O)OC[C@@]1(O[C@H]2O[C@H](CO)[C@@H](O)[C@H](O)[C@H]2OC(=O)CC(C)C)O[C@H](COC(=O)CC(C)C)[C@@H](OC(=O)CC(C)C)[C@@H]1OC(=O)CC(C)C.CC[C@@H](C)C(=O)O[C@@H]1[C@@H](COC(=O)CC(C)C)O[C@@](COC(=O)CC(C)C)(O[C@H]2O[C@H](CO)[C@@H](O)[C@H](O)[C@H]2OC(=O)CC(C)C)[C@H]1OC(=O)CC(C)C | 14 | 57 | 95 | 11 | 86 | 96
